Source: publication PMC4122495, “Small Molecule Deubiquitinase Inhibitors Promote Macrophage Anti-Infective Capacity” (PLoS ONE, 2014)
≈ marks a conversion by molar mass, not a printed value. Entries after “also recorded” stand apart in the source; their conditions may differ. Where two headings read alike, the source gives them in different places.

Legend:
RAW264.7 cells = assay: WST-1 cell viability assay, conditions mimicking the bacterial infection protocol; format: cell-based, murine; conditions: then 8 h
Protocol: For cell viability assays in conditions that mimicked the bacterial infection protocol, RAW264.7 cells were cultured at an initial density of 4×10^6 cells per 96-well plate. Cells were treated with 2.5 or 5 µM DUB inhibitors dissolved in DMSO for 0.5 h or 1 h or with equivalent volume of DMSO. DUB inhibitors were removed after treatment by washing three times with PBS, and cells were incubated in culture media for 6.5 h at 37°C. The WST-1 reagent (Roche, San Francisco, CA), which measures mitochondrial dehydrogenase activity, was diluted 1 in 10 in media and cells were incubated at 37°C for an additional 1.5 h. The optical density at 440 nm (OD440) and 600 nm (OD600) was determined and results were normalized to DMSO-treated cells.

L. monocytogenes [1] = assay: L. monocytogenes intracellular growth assay in RAW264.7 macrophages; format: cell-based, Listeria monocytogenes 10403S; parameters: decrease in Listeria intracellular viability: concentration or dose not given beside the values; conditions: for effect on L.m. intracellular growth (in words): RAW264.7 pre-treated with compound; for effect on L.m. intracellular growth (in words) / decrease in Listeria intracellular viability / Decrease intracellular listeria viability (%): 8 h post-infection; for decrease in Listeria intracellular viability: RAW264.7 pre-treated at each compound's working condition (Fig. 2B, 5B); for decrease in Listeria intracellular viability / Decrease intracellular listeria viability (%): vs DMSO; for Decrease intracellular listeria viability (%): conditions of Figure 2B and Figure 5B, maximal effective drug concentration used; for EC50: Listeria monocytogenes, RAW264.7 pre-treated with varying concentrations, then infected (MOI 1), intracellular CFU at 8 h post-infection, non-linear regression
Protocol: RAW264.7 cells were cultured at an initial density of 4×10^6 cells per 24-well plate and allowed to adhere overnight. Macrophages were treated with 2.5 or 5 µM of DUB inhibitors dissolved in dimethyl sulfoxide (DMSO) for 0.5 or 1 h or with equivalent volume of DMSO (vehicle control) at 37°C. For dose-response curves, macrophages were incubated with 5, 2.5, 1 and 0.5 µM of compounds 1, 3 and 4 or 2.5, 2, 1 and 0.5 µM of compounds 2 and 9 for 0.5 h or 1 h at 37°C. DUB inhibitors were removed from cell culture prior to infection by changing the medium. Macrophages were infected with L. monocytogenes at a multiplicity of infection (MOI) of 1 for 0.5 h at 37°C. The inoculum was removed by washing infected cells three times with Dulbecco’s phosphate-buffered saline (PBS), and the cells were incubated in medium containing 10 µg/ml of gentamicin to kill extracellular bacteria for the duration of the experiment. At 8 h post-infection, cells were lysed in 1 ml 0.1% Triton X-100, serially diluted and plated on Luria-Bertani (LB) agar to enumerate the number of colony forming units (CFU). CFU were counted using the Acolyte SuperCount (Microbiology International, Frederick, MD) plate reader and software. Results were normalized to DMSO-treated cells.
Supplementary file pone.0104096.s001.tif: Figure S1 Dose-response curves for selected compounds. RAW264.7 cells were incubated with DMSO (equivalent volume) or the varying concentrations of WP1130-derivatives for 0.5 h (compounds 1, 2, 4 and 9) or 1 h (compound 3). After incubation, the medium was removed, and cells were infected at 37°C for 0.5 h at an MOI of 1 with L. monocytogenes in the absence of additional drugs. Following the 0.5 h infection, cells were washed and gentamycin (10 µg/ml) was added to kill extracellular bacteria. Intracellular bacteria were enumerated at 8 h post-infection. The data represent percent of Listeria intracellular growth compared to DMSO-treated cells from three independent experiments performed in triplicate. Non-linear regression curves were performed using the GraphPad Prism software. (TIF) Click here for additional data file.

L. monocytogenes [2] = tested on: L. monocytogenes; parameters: method as in PMID 21911458; conditions: absence of host cells; cited from earlier work
[3] = Aqueous kinetic solubility; format: physicochemical; conditions: aqueous (not further specified)
MNV-1 = tested on: MNV-1; parameters: method as in PMID 22792064; conditions: pre-treatment of RAW264.7 cells; cited from earlier work
USP9x = tested on: USP9x; parameters: method as in Donato, N. J., manuscript in preparation; conditions: cell-based assay; ref Donato, N. J., manuscript in preparation; read-out: IC50 against USP9x; cited from earlier work
L. monocytogenes [4] = assay: Bacterial growth curve in BHI broth culture; format: cell-based, Listeria monocytogenes 10403S; conditions: 5 µM in BHI broth; for effect on Listeria growth in broth culture: absence of host cells, up to 8 h
Protocol: For bacterial growth curve in broth culture, an overnight culture of L. monocytogenes was back-diluted 1∶50 into BHI broth in the presence of 5 µM of compounds 1 to 4, 2.5 µM of compound 9 or equivalent volume of DMSO and incubated statically at 30°C for up to 8 h. At indicated time points (0, 2, 4, 6 and 8 h), a 50 µl-aliquot of bacteria was serially diluted and plated on LB agar to determine the number of CFU. To test the bactericidal properties of compound 9, an overnight culture of L. monocytogenes was back-diluted 1∶50 into BHI broth and allowed to grow at 37°C with shaking until an optical density at 600 nm (OD600) of ∼0.6–0.7 was obtained. Bacteria were then exposed to 1, 2.5 or 5 µM of compound 9 or equivalent volume of DMSO for 2 h at 4°C. After incubation, bacteria were serially diluted and plated on LB agar to determine CFU.

| EC50 (L. monocytogenes [1]) | Structure (SMILES) | cellular toxicity (WST-1 viability) (RAW264.7 cells; 5 µM, 1 h pre-treatment) | effect on L.m. intracellular growth (in words) (L. monocytogenes [1]) | decrease in Listeria intracellular viability (L. monocytogenes [1]) | effect on Listeria growth in broth culture (L. monocytogenes [4]) | Decrease intracellular listeria viability (%) (L. monocytogenes [1]) | other results |
| --- | --- | --- | --- | --- | --- | --- | --- |
| – | CCCC(NC(=O)/C(C#N)=C/c1cccc(F)n1)c1ccc(OCCN2CCOCC2)cc1 (centres unmarked) [Compound 6] | no significant toxicity | No effect on L.m. intracellular growth | – | – | – | effect on L.m. intracellular growth (in words) (L. monocytogenes [1]; listed as compound 6): no significant effect on Listeria intracellular growth; also recorded: complete loss of activity |
| – | CCC[C@H](NC(=O)/C(C#N)=C/c1cccc(Br)n1)c1ccccc1 [WP1130, reference compound] | – | Decrease L.m. intracellular growth | 69.9% | – | – | effect on Listeria growth in broth culture (L. monocytogenes [2]): no effect; solubility kinetic [3]: 3.2 µM (≈ 1.23 µg/mL); average decrease in MNV-1 titers compared to DMSO vehicle control (MNV-1): 2.0 log; IC50 (USP9x): 6.6 µM |
| – | CCC[C@H](NC(=O)/C=C/c1cccc(Br)n1)c1ccccc1 [Compound 8] | no significant toxicity | No effect on L.m. intracellular growth | – | – | – | effect on L.m. intracellular growth (in words) (L. monocytogenes [1]; listed as compound 8): no significant effect on Listeria intracellular growth; also recorded: no activity |
| – | CCCC(NC(=O)/C(C#N)=C/c1cccc(Br)n1)c1ccc(OCOC)cc1 (centres unmarked) [Compound 3] | no significant toxicity | Decrease L.m. intracellular growth | 39.9% | slight decrease in the in vitro growth | 39.9% | – |
| 1.76 µM | CCC[C@@H](NC(=O)/C(C#N)=C/c1cccc(Br)n1)c1ccccc1 [Compound 2] | – | Decrease L.m. intracellular growth | 44% | slight decrease in growth rate | 44.0% | effect on total CFU per ml by 8 h in broth culture (L. monocytogenes [4]): without affecting the total number of colony forming unit (CFU) per ml by 8 h; cellular toxicity (WST-1 viability) (RAW264.7 cells; pre-treatment 0.5 or 1 h, led to working concentration of 2.5 µM for 0.5 h): slight increase in toxicity |
| 1.1 µM | CCC[C@H](NC(=O)/C(C#N)=C/c1cccc(Cl)n1)c1ccccc1 [Compound 1] | – | Decrease L.m. intracellular growth | 54.7% | slight decrease in growth rate | 54.7% | effect on total CFU per ml by 8 h in broth culture (L. monocytogenes [4]): without affecting the total number of colony forming unit (CFU) per ml by 8 h |
| 2.88 µM | CCC[C@H](NC(=O)/C(C#N)=C/c1cccc(F)n1)c1ccccc1 [Compound 4] | – | Decrease L.m. intracellular growth | 29.2% | no effect | 29.2% | – |
| – | CCCC(NC(=O)/C(C#N)=C/c1cccnc1F)c1ccc(OCCN2CCOCC2)cc1 (centres unmarked) [Compound 7] | no significant toxicity | No effect on L.m. intracellular growth | – | – | – | effect on L.m. intracellular growth (in words) (L. monocytogenes [1]; listed as compound 7): no significant effect on Listeria intracellular growth; also recorded: complete loss of activity |
| – | CCC(NC(=O)/C(C#N)=C/c1cccc(Br)n1)c1ccc(O)cc1 (centres unmarked) [Compound 5] | no significant toxicity | Decrease L.m. intracellular growth | 25.4% | – | – | – |
